Laboratory results: US5464859A, “Benzospiroalkene derivatives” (Adir et Compagnie, priority 1993, dated 1995)
Counter-ions that a name gives are not always drawn.

How the values were obtained:
[1] = test system: saphenous veins; assay: In vitro contraction of dog saphenous veins (agonist concentration/effect curve); details: Canis lupus familiaris, VEIN; for Emax: maximum effect relative to maximum effect caused by 100 mM KCl, read-out: Max (% KCl); for EC50: saphenous vein rings, dog, 37° C.
Protocol: (§1) In vitro study on the femoral arteries and saphenous veins of dogs
(§2) The technique used is based on that described by Fowler et at. (J. Pharmacol. Exp. Ther., 229, 712-718, 1984). Male or female mongrel dogs weighing approximately 15-25 kg were used as organ sources. The animals are anesthetized with pentrobarbital (30 mg/kg, intravenously). Incisions are made in the legs and the vessels are withdrawn. They are placed in Krebs-Ringer liquid (NaCl 118 mM, NaHCO3 25 mM, Glucose 10 mM, KCl 4.7 mM, CaCl2 1.25 mM, MgSO4 1.19 mM, KH2 PO4 1.14 mM) at room temperature and while bubbling with carbogen (95% O2, 5% CO2). These vessels are then carefully freed from their fat, then cut into rings with a width of 2 mm and mounted under a base tension of 4 g (femoral arteries) or 1 g (saphenous veins) in vessels thermostatically controlled at 37° C. containing Krebs-Ringer liquid through which carbogen is constantly bubbling. A lower hook constitutes the set point whereas the upper hook is connected to an isometric force sensor. The tension variations are digitized, stored on disk and processed by a computer system. After mounting, the organs, are left at rest for 90 minutes, rinsings being carried out every 30 min. After readjusting the base tension, a contraction is caused by a single dose of KCl (100 mM). After stabilisation, washing and returning to the base line, a contraction is provoked by a single dose of phenylephrine (submaximal concentration) in order to regularize the following contractions. After washing and returning to the base line, a concentration/effect curve is produced by addition of cumulative doses of agonist (the spacing between the doses is a half-log). This experiment makes it possible to calculate the 50% effective concentration (EC5.sbsb.0) in the following way: the tension values are first converted to percentages with respect to the maximum effect caused by 100 mM of KCl. This EC5.sbsb.0 is determined by non-linear regression by the Simplex method (M. S. Caceci, Byte, 340-362, 1984), calculated according to the model of the law of mass action of L. Michaelis and M. L. Menten (Biochem. Zeitschrifft, 49, 333-369, 1913). E=(Emax*C^n)(EC^n +C^n) where E=effect, Emax=maximum effect, C=concentration, EC=EC5.sbsb.0 and n=Hill number.

[2] = test system: femoral arteries; assay: In vitro contraction of dog femoral arteries (agonist concentration/effect curve); details: Canis lupus familiaris, ARTERY; for EC50: femoral artery rings, dog, 37° C.; for Emax: maximum effect relative to maximum effect caused by 100 mM KCl, read-out: Max (% KCl)
Protocol: as §1, §2

[3] = test system: 1 or 2 -adrenergic; assay: In vivo study on amyelous rats (arterial pressure increase, with or without prazosin or yohimbine); parameters: species or system Male Sprague-Dawley rats; details: for Ratio C20 treated/C20 control: pretreated with yohimbine (1 mg/kg); for ED (20 mmHg): Rattus norvegicus, iv, Control (no antagonist), increasing cumulative doses every 20 seconds, tertatolol pretreatment, read-out: C20 (concentration which increases the pressure by 20 mmHg)
Description: In vivo study on AMYELOUS RATS
Male Sprague-Dawley rats (300-400 g) are anesthatized with ether. A cannula is inserted in the trachea, the spinal cord is destroyed using a steel rod and the animal is immediately placed under artificial respiration. The vagus nerves are sectioned. The carotid arteries are ligatured and a catheter is placed in one and is used to record the arterial pressure. Three other catheters are placed in the jugular veins and the vein of the penis and are used for injections. The temperature of the animals is maintained at 36° C. The animal is pretreated with an injection of tertatolol ([…]). The animal is also pretreated 10 minutes afterwards with prazosin ([…]) or yohimbine (1 mg/kg) when it is wished to determine the 1 or 2 -adrenergic properties of the product. Ten minutes later, increasing cumulative doses of product are injected every 20 seconds. The medal pressure variations are detected using a P23XL Statham pressure cell and are recorded. The pressure values are expressed in mmHg. This experiment makes it possible to calculate the concentration which increases the pressure by 20 mmHg (C2.sbsb.0) by non-linear regression according to the model of the Michaelis and Menten mass action law as described above. The maximum effect obtained is then converted to a percentage with respect to the maximum effect caused by phenylephrine. The 1 or 2 -adrenergic components of the product are estimated using the ratio of the C2.sbsb.0 values obtained in the presence of prazosin or of yohimbine to the values obtained in the absence of these antagonists. In amyelous rats, the products of the invention induce hypertensions which are inhibited more by prazosin than by yohimbine.

COc1cccc2c1CCC1(CNC=N1)C2 (stereo not drawn) [Example 5, Spiro[(1,3-diazacyclopent-1-ene)-5,2'-(5'-methoxy-1',2',3',4'-tetrahydronaphthalene)]] gave an Emax [1] of 100%, an EC50 [1] of 6.4 µM and an EC50 [2] of 1.5 µM. The Emax [2] was 93%.

With COc1ccc(OC)c2c1CCC1(CNC=N1)C2 (stereo not drawn) [Example 1, Spiro[(1,3-diazacyclopent-1-ene)-5,2'-(5',8'-dimethoxy-1',2',3',4'-tetrahydronaphthalene)]fumarate] the Emax [1] was 100%, the EC50 [1] was 0.2 µM and the “Ratio C20 treated/C20 control” value [3] was 11. For the same molecule, the EC50 [2] was 0.16 µM and the Emax [2] was 72%.

COc1ccc(OC)c2c1CCC1(CNC=N1)C2 (single isomer, unassigned) [Example 7, Spiro[(1,3-diazacyclopent-1-ene)-5,2'-(5',8'-dimethoxy-1',2',3',4'-tetrahydro-naphthalene)]fumarate, isomer α] gave an Emax [1] of 109%, an EC50 [1] of 0.12 µM and an EC50 [2] of 0.03 µM. It also gave an Emax [2] of 95%.

CCOc1ccc(OC)c2c1CCC1(CNC=N1)C2 (stereo not drawn) [Example 2, Spiro[(1,3-diazacyclopent-1-ene)-5,2'-(5'-ethoxy-8'-methoxy-1',2',3',4'-tetrahydronaphthalene)]fumarate] was tested, and the ED (20 mmHg) [3] was 0.06 µg/kg and the “Ratio C20 treated/C20 control” value [3] was 5.

In the case of CCOc1ccc(OCC)c2c1CCC1(CNC=N1)C2 (stereo not drawn) [Example 3, Spiro[(1,3-diazacyclopent-1-ene)-5,2'-(5',8'-diethoxy-1',2',3',4'-tetrahydronaphthalene) fumarate], the ED (20 mmHg) [3] is reported as 0.6 µg/kg and the “Ratio C20 treated/C20 control” value [3] is reported as 8.

Molecule COc1ccc(SC)c2c1CC1(CC2)CNC=N1 (stereo not drawn) [Example 6, Spiro[(1,3-diazacyclopent-1-ene)-5,2'-(5'-methylthio-8'-methoxy-1',2',3',4'-tetrahydronaphthalene)]fumarate] has an Emax [1] of 98%, an EC50 [1] of 0.8 µM and an EC50 [2] of 0.08 µM. The Emax [2] was 85%.
